In PubChem BioAssay (NCI):
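Here, GI50 denotes the concentration required for 50% inhibition of growth. The concentration for full growth arrest is given as TGI.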

How the values were obtained:
Assay in all cases: inhibition of tumour cell growth, NCI panel, 384-well format
NCI-H23 lung = tested on: NCI-H23 lung
KM12 colon = tested on: KM12 colon
NCI-H460 NSCLC = tested on: NCI-H460 NSCLC
OVCAR-5 ovarian = tested on: OVCAR-5 ovarian
OVCAR-8 ovarian = tested on: OVCAR-8 ovarian
IGROV1 ovarian = tested on: IGROV1 ovarian
HCC-2998 colon = tested on: HCC-2998 colon
CCRF-CEM leukemia = tested on: CCRF-CEM leukemia
RPMI-8226 leukemia = tested on: RPMI-8226 leukemia
SNB-19 CNS = tested on: SNB-19 CNS
SF-295 CNS = tested on: SF-295 CNS
A549 NSCLC = tested on: A549 NSCLC
SW-620 colon = tested on: SW-620 colon

SMILES | GI50 (NCI-H23 lung) [µM] | TGI (NCI-H23 lung) [µM] | GI50 (KM12 colon) [µM] | TGI (KM12 colon) [µM] | GI50 (NCI-H460 NSCLC) [µM] | TGI (NCI-H460 NSCLC) [µM] | GI50 (OVCAR-5 ovarian) [µM] | TGI (OVCAR-5 ovarian) [µM] | GI50 (OVCAR-8 ovarian) [µM] | TGI (OVCAR-8 ovarian) [µM] | GI50 (IGROV1 ovarian) [µM] | TGI (IGROV1 ovarian) [µM] | GI50 (HCC-2998 colon) [µM] | TGI (HCC-2998 colon) [µM] | GI50 (CCRF-CEM leukemia) [µM] | TGI (CCRF-CEM leukemia) [µM] | GI50 (RPMI-8226 leukemia) [µM] | TGI (RPMI-8226 leukemia) [µM] | GI50 (SNB-19 CNS) [µM] | TGI (SNB-19 CNS) [µM] | further results
Cc1cc([N+](=O)[O-])c(NS(=O)(=O)c2cccc(C(=O)O)c2)cc1-c1cccnc1 | > 100 | > 100 | 16.8 | > 100 | > 100 | > 100 | > 100 | > 100 | > 100 | > 100 | > 100 | > 100 | > 100 | > 100 | > 100 | > 100 | > 100 | > 100 | > 100 | > 100 | GI50 (SF-295 CNS): > 100 µM; TGI (SF-295 CNS): > 100 µM; GI50 (A549 NSCLC): > 100 µM; TGI (A549 NSCLC): > 100 µM; GI50 (SW-620 colon): > 100 µM; TGI (SW-620 colon): > 100 µM
CC1=C(c2cccc(O)c2)[C@H](c2ccc(OCCN3CC(CF)C3)cc2)Oc2ccc(O)cc21 | 7.02 | 19.6 | 3.21 | 10.2 | 2.18 | 4.88 | 10.3 | 22.1 | 10.1 | 21.8 | 4.88 | 16.9 | 1.54 | 3.23 | 2.11 | 4.88 | 1.82 | 4.02 | 10.5 | 22.3 | GI50 (SF-295 CNS): 11.6 µM; TGI (SF-295 CNS): 23.9 µM; GI50 (A549 NSCLC): 9.02 µM; TGI (A549 NSCLC): 21.2 µM; GI50 (SW-620 colon): 4.9 µM; TGI (SW-620 colon): 16.6 µM
